Experimental data published in US6602708B1, “Neural cultures” (CellFactors plc, priority 1994, dated 2003).

How the values were obtained:
raphe clone 1 cells = raphe clone 1 cells at non-permissive temperature (39° C.), survival and differentiation; type: cell-based, rat; settings: plus fibroblast growth factor, up to 72 h
Method: The above referred to homogeneous population of raphe clone 1 cells can be caused to enter apoptosis using any of the following four methods.
1. Temperature was raised to non-permissive value (39° C.) for up to 72 h, in the presence or absence of fibroblast growth factor or epidermal growth factor. Neural cells developed the ability to take up 5-hydroxytryptophan (5HTP, the precursor of 5HT), 5HT itself, and to decarboxylate 5-hydroxytryptophan to 5HT. […] The 5HT derived from 5HTP was released, although the mechanism of such release is not known.
2. Temperature was raised to non-permissive value (39° C.) for up to 72 h, in the presence of cyclic AMP plus fibroblast growth factor.
3. Temperature was raised to non-permissive value (39° C.) for up to 96 h, in the presence of retinoic acid (10 μM) plus fibroblast growth factor.

low-affinity carrier = test: serotonin uptake by clone 921203-6 cells after shift to 39° C.; type: cell-based, rat; settings: clone 921203-6, 39° C.
Method: Mesencephalic and medullary raphe neural cells from the E12-E13 rat embryo (E1=day of conception) were immortalised using a temperature-sensitive oncogene as described earlier (Stringer et al., 1994). Under permissive conditions, ie in the presence of 5 ng/ml of fibroblast growth factor (FGF)(Sigma, product no. F3391) and at 33° C., the immortalised raphe precursor cells replicate. […] No calcium channels were demonstrable using patch clamp analysis.

Row | SMILES | extent of fibre development (raphe clone 1 cells) | Km (low-affinity carrier) [µM]
1 | Nc1ncnc2c1ncn2[C@@H]1O[C@@H]2COP(=O)(O)O[C@H]2[C@H]1O [cyclic AMP] | increase | 
2 | NCCc1c[nH]c2ccc(O)cc12 [serotonin, 5-hydroxytryptamine] |  | 56
